The nature of this data set: xn = mol fraction of the nth substance listed. The note with it: 298.15 K, 101 kPa, Liquid, Vibrating tube method.

Molecules are shown by their SMILES. ± gives the expanded uncertainty stated by the source.

The mass density is the mass of a sample divided by its volume. In the case of `CCO` [ethanol] + CC1(C)[C@H]2CC[C@]1(CS(=O)(=O)O)C(=O)C2, the mass density (x2 = 0) was 785.024 ± 0.15 kg/m3.
On the same count and under the same terms, as for `CCO` [ethanol] + CC1(C)[C@@H]2CC[C@@]1(CS(=O)(=O)O)C(=O)C2, the figure is 785.026 ± 0.15 kg/m3; as for `CCO` [ethanol] + CC1(C)[C@H]2CC[C@]1(CS(=O)(=O)Cl)C(=O)C2, 785.035 ± 0.15 kg/m3.
Regarding `CC1(C)[C@@H]2CC[C@@]1(C)C(=O)C2=O` [(-)-camphorquinone] + CCO, the mass density came out at 786.235 ± 0.15 kg/m3 (x1 = 0.001389), 786.827 ± 0.15 kg/m3 (x1 = 0.00209) and 787.379 ± 0.15 kg/m3 (x1 = 0.002792).
For `CC1(C)[C@H]2CC[C@]1(C)C(=O)C2=O` [(+)-camphorquinone] + CCO the same measures were 786.234 ± 0.15 kg/m3, 786.827 ± 0.15 kg/m3 and 787.377 ± 0.15 kg/m3.
Turning to `CCO` [ethanol] + CC1(C)[C@H]2CC[C@]1(C)C(=O)C2=O, the mass density (x2 = 0) is given as 785.022 ± 0.15 kg/m3.
Turning to `CC1(C)[C@@H]2CC[C@@]1(CS(=O)(=O)O)C(=O)C2` [(1S)-(+)-10-camphorsulfonic acid] + CCO, the mass density came out at 787.039 ± 0.15 kg/m3 (x1 = 0.001067), 787.971 ± 0.15 kg/m3 (x1 = 0.001496) and 789.368 ± 0.15 kg/m3 (x1 = 0.002271).
With `CCO` [ethanol] + CC1(C)[C@@H]2CC[C@@]1(C)C(=O)C2, where the note is “x2 = 0”, the mass density stood at 785.055 ± 0.15 kg/m3.
Same read-out and setting: for `CCO` [ethanol] + CC1(C)C2CCC1(CS(=O)(=O)Cl)C(=O)C2 the value was 785.033 ± 0.15 kg/m3; for `CCO` [ethanol] + CC1(C)[C@@H]2CC[C@@]1(C)C(=O)C2=O, 785.025 ± 0.15 kg/m3.
With `CC1(C)[C@H]2CC[C@]1(CS(=O)(=O)O)C(=O)C2` [(1R)-(-)-10-camphorsulfonic acid] + CCO, the mass density is reported as 787.036 ± 0.15 kg/m3 (x1 = 0.001067), 787.969 ± 0.15 kg/m3 (x1 = 0.001496) and 789.366 ± 0.15 kg/m3 (x1 = 0.002271).
`CC1(C)[C@@H]2CC[C@@]1(CS(N)(=O)=O)C(=O)C2` [(1S)-(+)-10-camphorsulfonamide] + CCO: the mass density by setting is: (x1 = 9.665e-05) 785.188 ± 0.15 kg/m3; (x1 = 0.001502) 787.624 ± 0.15 kg/m3; (x1 = 0.002013) 788.405 ± 0.15 kg/m3.
On to `CCO` [ethanol] + CC1(C)[C@@H]2CC[C@@]1(CS(N)(=O)=O)C(=O)C2, for which, where the note is “x2 = 0”, the mass density was determined as 785.013 ± 0.15 kg/m3.
For the molecule `CCO` [ethanol] + CC1(C)[C@H]2CC[C@]1(C)C(=O)C2, for the setting “x2 = 0”, the mass density amounted to 785.056 ± 0.15 kg/m3.
With `CC1(C)[C@@H]2CC[C@@]1(C)C(=O)C2` [d-camphor] + CCO, the mass density runs as follows: (x1 = 0.001613) 786.229 ± 0.15 kg/m3; (x1 = 0.003055) 786.827 ± 0.15 kg/m3; (x1 = 0.009161) 788.887 ± 0.15 kg/m3; (x1 = 0.01574) 789.421 ± 0.15 kg/m3.
In the case of `CC1(C)[C@H]2CC[C@]1(C)C(=O)C2` [(1S)-1,7,7-trimethylbicyclo[2.2.1]heptan-2-one] + CCO, the mass density came out at 786.229 ± 0.15 kg/m3 (x1 = 0.001613), 786.828 ± 0.15 kg/m3 (x1 = 0.003055), 788.869 ± 0.15 kg/m3 (x1 = 0.009161) and 789.42 ± 0.15 kg/m3 (x1 = 0.01574).
For the molecule `CC1(C)[C@H]2CC[C@]1(CS(=O)(=O)Cl)C(=O)C2` [(1R)-(-)-10-camphorsulfonyl chloride] + CCO, the mass density runs as follows: (x1 = 0.0006848) 786.329 ± 0.15 kg/m3; (x1 = 0.001385) 787.654 ± 0.15 kg/m3; (x1 = 0.002039) 788.885 ± 0.15 kg/m3.
On to `CC1(C)C2CCC1(CS(=O)(=O)Cl)C(=O)C2` (stereo not drawn) [d-10-camphorsulfonyl chloride] + CCO, for which the mass density is, setting by setting: (x1 = 0.0006848) 786.327 ± 0.15 kg/m3; (x1 = 0.001385) 787.552 ± 0.15 kg/m3; (x1 = 0.002039) 788.887 ± 0.15 kg/m3.

The record behind these values is the NIST ThermoML archive (doi:10.1016/j.jct.2009.05.005).
